Active and inactive are the calls of the source. No cut-off for these calls is given here.

For orientation: Ki means a dissociation constant, usually derived from enzyme kinetics or from competition with a known ligand. The IC50 is the midpoint of a concentration-inhibition curve.

The first assay deals with Rattus norvegicus. The experiment in a line: Antinociceptive activity in Sprague-Dawley rat assessed inhibition of thermal stimulus-induced hind paw withdrawal at 10 mg/kg, iv after 32 mins. It is filed as functional, organism-based. On the set-up: dose 10 mg/kg.
As to `CCCCOc1ccc(NC(=O)O/N=C/c2ccc(F)cc2)cc1`, the outcome was inactive.

The next assay concerns the target T1, Fatty-acid amide hydrolase 1 (Homo sapiens) (UniProt O00519).
T1 sequence (whole entry): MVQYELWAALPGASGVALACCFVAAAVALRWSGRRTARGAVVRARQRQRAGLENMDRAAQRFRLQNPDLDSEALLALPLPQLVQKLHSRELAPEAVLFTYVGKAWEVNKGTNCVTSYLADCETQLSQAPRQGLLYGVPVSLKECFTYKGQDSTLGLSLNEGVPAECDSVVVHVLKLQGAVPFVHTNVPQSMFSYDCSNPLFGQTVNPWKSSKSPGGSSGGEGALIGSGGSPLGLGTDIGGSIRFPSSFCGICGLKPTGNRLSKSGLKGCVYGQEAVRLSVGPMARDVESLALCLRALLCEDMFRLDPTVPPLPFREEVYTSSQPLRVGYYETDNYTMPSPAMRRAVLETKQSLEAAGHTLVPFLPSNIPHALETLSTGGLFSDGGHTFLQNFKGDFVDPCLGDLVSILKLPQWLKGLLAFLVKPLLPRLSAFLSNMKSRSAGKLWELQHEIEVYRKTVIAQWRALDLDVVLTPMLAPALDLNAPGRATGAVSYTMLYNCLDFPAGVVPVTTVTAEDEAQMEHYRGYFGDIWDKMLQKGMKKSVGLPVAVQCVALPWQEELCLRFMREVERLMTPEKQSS
Kind of assay: Inhibition of human FAAH-mediated anandamide hydrolysis expressed in human H4 cells assessed as reduction in initial reaction rate at 5 nM by fluorescence assay relative to vehicle control. It is filed as cell-based. On the set-up: scale not given: the % may be the effect or the level left.
Take `CCCCOc1ccc(NC(=O)O/N=C/c2ccc(F)cc2)cc1`: the Activity is 25%.

For another assay, the system named is Rattus norvegicus. The experiment in a line: Antinociceptive activity in Sprague-Dawley rat assessed inhibition of thermal stimulus-induced hind paw withdrawal at 1 mg/kg, iv after 32 mins. Type of assay: functional, organism-based. Details: dose 1 mg/kg.
As for `CCCCOc1ccc(NC(=O)O/N=C/c2ccc(F)cc2)cc1`, the outcome was inactive.

In another assay the target is T2, Fatty-acid amide hydrolase 1 (Homo sapiens, UniProt O00519).
T2 sequence (O00519 whole entry): T1 sequence (whole entry)
The experiment in a line: Competitive inhibition of human FAAH expressed in human H4 cells. It is filed as cell-based.
For the compound `CCCCOc1ccc(NC(=O)O/N=C/c2ccc(F)cc2)cc1`, the Ki is 30 nM.

In a further assay the test system is Rattus norvegicus. The experiment in a line: Antinociceptive activity in iv dosed Sprague-Dawley rat assessed inhibition of thermal stimulus-induced hind paw withdrawal after 32 mins in presence of anandamide. Type of assay: functional, organism-based.
For the compound `CCCCOc1ccc(NC(=O)O/N=C/c2ccc(F)cc2)cc1`, the Activity entry is “Dose-dependent effect”.

The target in another assay is T2, Fatty-acid amide hydrolase 1. Kind of assay: Inhibition of human FAAH expressed in human H4 cells. Type of assay: cell-based.
`CCCCCCCCCOc1ccc(NC(=O)O/N=C/c2ccc(F)cc2)cc1` came in with an IC50 of 0.2 nM.

Consider `CCCCOc1ccc(NC(=O)Oc2ccc(F)cc2)cc1`, for which the 50% inhibitory concentration (IC50) was 120 nM. The same measure, in the same setting: the result for `CCCCOc1ccc(NC(=O)ON=C(C)C)cc1OC` reads 11000 nM; that for `CCCCOc1ccc(NC(=O)O/N=C/c2ccc(F)cc2)cc1`, 2.2 nM. In the case of `CCOc1ccc(NC(=O)ON=C(C)C)cc1`, the IC50 stood at 730 nM. Same read-out and setting: the result for `CCCCCCCCCOc1ccc(NC(=O)O/N=C/c2cccnc2)cc1` reads 0.65 nM; that for `CCCCCCCCOc1ccc(NC(=O)ON=C(C)C)cc1`, 2.4 nM; that for `CCOc1ccc(NC(=O)O/N=C/c2ccccc2)cc1`, 81 nM. In turn, `CCCCCCCCCCCOc1ccc(NC(=O)Oc2ccccc2F)cc1` yielded an IC50 of 15 nM.

Regarding `CCCCCCCOc1ccc(NC(=O)Oc2ccccc2F)cc1`, the midpoint of inhibition, the IC50, lay at 28 nM.

`CCCOc1ccc(NC(=O)O/N=C/c2cccnc2)cc1` came in with an IC50 of 29 nM. In the case of `CCCCOc1ccc(CNC(=O)ON=C(C)C)cc1`, it took 570 nM to reach half-maximal inhibition (IC50). For `O=C(Nc1ccc(Oc2ccccc2)cc1)Oc1ccccc1F`, inhibition was half-maximal at 1300 nM (IC50). In the case of `CCCCOc1cccc(NC(=O)ON=C(C)C)c1`, the IC50 was 6300 nM.

Compound `CCCCCCCCCCOc1ccc(NC(=O)O/N=C/c2ccccc2)cc1` registered an IC50 of 0.35 nM. Compound `CCCCCCCCOc1ccc(NC(=O)Oc2ccccc2F)cc1` gave an IC50 of 19 nM. Take `CCCCOc1ccc(C(CC)NC(=O)Oc2cccc(C(F)(F)F)c2)cc1` (stereo not drawn): the IC50 turned out to be 51 nM. Still for that read-out and setting: the result for `CCCCCCCCCCCOc1ccc(NC(=O)Oc2ccccc2)cc1` reads 1 nM; that for `CCCCCCCCCCOc1ccc(NC(=O)Oc2ccccc2)cc1`, 1.4 nM. On the same count and under the same terms, then `CCCCOc1ccc(C(CC)NC(=O)Oc2ccccc2)cc1` (stereo not drawn), with 12 nM; and `CCCCOc1ccc(C(CC)NC(=O)Oc2cccc(N(C)C)c2)cc1` (stereo not drawn), with 54 nM; and `CCCCCOc1ccc(NC(=O)O/N=C/c2ccccc2)cc1`, with 3.5 nM. Compound `CCCCCCCCOc1ccc(NC(=O)O/N=C/c2ccc(F)cc2)cc1` showed an IC50 of 0.27 nM. In the case of `CCCOc1ccc(NC(=O)O/N=C/c2ccccc2)cc1`, it took 9.3 nM to reach half-maximal inhibition (IC50). As to `CCOc1ccc(NC(=O)O/N=C/c2ccc(F)cc2)cc1`, the half-maximal inhibitory concentration (IC50) came to 46 nM. On to `CCCCCCCCCCCOc1ccc(NC(=O)O/N=C/c2ccc(F)cc2)cc1`, for which the IC50 stood at 0.4 nM. In the case of `CCCCOc1ccc(CNC(=O)Oc2cccc(Cl)c2)cc1`, 12 nM corresponded to half-maximal inhibition (IC50).

Regarding `CCCCCCCCCCCCOc1ccc(NC(=O)ON=C(C)C)cc1`, the IC50 came to 5 nM. On the same count and under the same terms, then `CCCCCCCCCCCOc1ccc(NC(=O)O/N=C/c2ccccc2)cc1`, with 0.45 nM; and `CCCCCCOc1ccc(NC(=O)Oc2ccccc2F)cc1`, with 710 nM; and `CCCCCCCCCCOc1ccc(NC(=O)ON=C(C)C)cc1`, with 2.2 nM. Still for that read-out and setting: the result for `CCCCCCCCCOc1ccc(NC(=O)O/N=C/c2ccccc2)cc1` reads 0.25 nM; that for `CCCCOc1ccc(CNC(=O)Oc2cccnc2)cc1`, 6.1 nM; that for `CCCCCCCCCCCCOc1ccc(NC(=O)Oc2ccccc2)cc1`, 1.8 nM. In turn, `CCCCOc1ccc(C(CC)NC(=O)Oc2ccc(F)cc2F)cc1` (stereo not drawn) registered a concentration for half-maximal inhibition (IC50) of 21 nM.

The compound `CCCCOc1ccc(CNC(=O)Oc2ccc(F)cc2F)cc1` displayed an IC50 of 8.7 nM. For the compound `CCCCCCOc1ccc(NC(=O)ON=C(C)C)cc1`, half-maximal inhibition (IC50) was put at 18 nM. Still for that read-out and setting: the result for `CCCCCCCCCCCCOc1ccc(NC(=O)O/N=C/c2ccc(F)cc2)cc1` reads 2.1 nM; that for `CCCCCCCCCCCCOc1ccc(NC(=O)Oc2ccccc2F)cc1`, 13 nM; that for `CCCCCCCCCCOc1ccc(NC(=O)O/N=C/c2cccnc2)cc1`, 0.35 nM.

As to `CCCCOc1ccc(C(CC)NC(=O)Oc2ccc(F)cc2)cc1` (stereo not drawn), the IC50 is 12 nM. `CCCCOc1ccc(C(CC)NC(=O)Oc2ccc(OC)cc2)cc1` (stereo not drawn): it took 12 nM to reach half-maximal inhibition (IC50).

As for `CCCCOc1ccc(CNC(=O)Oc2ccccc2F)cc1`, the midpoint of inhibition, the IC50, lay at 9.2 nM. On to `CCCCCCCCCCCCOc1ccc(NC(=O)O/N=C/c2ccccc2)cc1`, for which the midpoint of inhibition, the IC50, lay at 2.4 nM.

For the compound `CCCCCCCCCCCCOc1ccc(NC(=O)O/N=C/c2cccnc2)cc1`, the IC50 worked out at 0.35 nM. Take `CCCCCOc1ccc(NC(=O)O/N=C/c2ccc(F)cc2)cc1`: the IC50 turned out to be 1.8 nM. Same read-out and setting: then `CCCCCOc1ccc(NC(=O)ON=C(C)C)cc1`, with 28 nM; and `CCCCCCOc1ccc(NC(=O)O/N=C/c2cccnc2)cc1`, with 8.3 nM; and `CCOc1ccc(NC(=O)O/N=C/c2cccnc2)cc1`, with 150 nM. As for `CCCCCCCCCCOc1ccc(NC(=O)O/N=C/c2ccc(F)cc2)cc1`, the IC50 is 0.25 nM. For `CCCCCCCOc1ccc(NC(=O)O/N=C/c2ccc(F)cc2)cc1`, the half-maximal inhibitory concentration (IC50) was 2.3 nM.

The compound `CCCCCCCCOc1ccc(NC(=O)O/N=C/c2cccnc2)cc1` displayed an IC50 of 0.8 nM. With `CCCCCCCCCOc1ccc(NC(=O)ON=C(C)C)cc1`, the IC50 stood at 2.1 nM.

In turn, `CCCCOc1ccc(CNC(=O)Oc2cccc(C(F)(F)F)c2)cc1` displayed an IC50 of 40 nM.

Take `CCCCCCCOc1ccc(NC(=O)ON=C(C)C)cc1`: the IC50 was determined as 8.4 nM. With `CCCCCCOc1ccc(NC(=O)O/N=C/c2ccccc2)cc1`, half-maximal inhibition (IC50) was put at 8 nM. Still for that read-out and setting: the result for `CCCCCCCCCCCOc1ccc(NC(=O)O/N=C/c2cccnc2)cc1` reads 0.15 nM. Still for that read-out and setting: the result for `CCCOc1ccc(NC(=O)ON=C(C)C)cc1` reads 210 nM; that for `CCc1ccc(-c2ccc(NC(=O)Oc3ccccc3F)cc2)cc1`, 810 nM; that for `CCCCCCCOc1ccc(NC(=O)O/N=C/c2ccccc2)cc1`, 8.6 nM. `COc1ccc(NC(=O)O/N=C/c2ccccc2)cc1` had an IC50 of 290 nM. Regarding `CCCCCCCCCCOc1ccc(NC(=O)Oc2ccccc2F)cc1`, half-maximal inhibition (IC50) was put at 9.2 nM.

For `CCCCOc1ccc(NC(=O)O/N=C/c2cccnc2)cc1`, half-maximal inhibition (IC50) required 14 nM.

The compound `CCCCCCCCOc1ccc(NC(=O)Oc2ccccc2)cc1` showed an IC50 of 5.4 nM. The compound `CCCCOc1ccc(NC(=O)ON=C(C)C)cc1` yielded an IC50 of 28 nM. The same measure, in the same setting: then `CCCOc1ccc(NC(=O)O/N=C/c2ccc(F)cc2)cc1`, with 13 nM; and `CCCCOc1ccc(CNC(=O)Oc2ccc(F)cc2)cc1`, with 4.6 nM. Still for that read-out and setting: then `CCCCCCCCOc1ccc(NC(=O)O/N=C/c2ccccc2)cc1`, with 0.43 nM; and `Cc1nc(-c2ccccc2)c(-c2ccccc2)n1CCCCCCNC(=O)Oc1ccccc1F`, with 1.7 nM. With `CCCCOc1ccc(C(CC)NC(=O)Oc2ccccc2F)cc1` (stereo not drawn), the concentration for half-maximal inhibition (IC50) was determined as 7.7 nM. The same measure, in the same setting: the result for `CCCCCCCOc1ccc(NC(=O)Oc2ccccc2)cc1` reads 8.6 nM; that for `CCCCOc1ccc(NC(=O)O/N=C/c2ccccc2)cc1`, 8.5 nM; that for `CCCCCCOc1ccc(NC(=O)O/N=C/c2ccc(F)cc2)cc1`, 6.5 nM. In turn, `CCCCOc1ccc(NC(=O)Oc2ccccc2F)cc1` had an IC50 of 340 nM. Same read-out and setting: then `CCCCCCOc1ccc(NC(=O)Oc2ccccc2)cc1`, with 31 nM.

In the case of `CCCCCCCOc1ccc(NC(=O)O/N=C/c2cccnc2)cc1`, half-maximal inhibition (IC50) was put at 2.3 nM. On the same count and under the same terms, the result for `CCCCCOc1ccc(NC(=O)O/N=C/c2cccnc2)cc1` reads 6.1 nM.

Compound `CCCCCCCCCCCOc1ccc(NC(=O)ON=C(C)C)cc1` registered an IC50 of 4.9 nM.
